{
  "source": "patent US20120149678A1",
  "about": "“Organonitro Compounds for Use in Treating Non-Hodgkin's Lymphoma and Leukemia, and Methods Relating Thereto” (priority 2010, published 2012)",
  "test_system": "B-cell lymphoma Daudi cells",
  "assay": "ABDNAZ-induced apoptosis of B-cell lymphoma Daudi cells (sub-G1 cells, propidium iodide staining, flow cytometry)",
  "assay_type": "cell-based",
  "method": "B-cell lymphoma Daudi cells were grown and maintained in Dulbecco's modified essential medium (DMEM) (INVITROGEN™, Grand Island, N.Y.) supplemented with 10% fetal calf serum, 100 units/mL penicillin, and 100 μg/mL streptomycin in a 37° C. humidified incubator with a mixture of 95% air and 5% CO2. Experiments were performed on exponentially growing cells with a cell population doubling time of approximately 20-36 hours.\nAfter exposing the B-cell lymphoma Daudi cells to ABDNAZ, apoptotic cell death was quantitated by measuring the number of subdiploid (sub-G1) cells stained with propidium iodide (PI), according to a procedure described previously by Ning and coworkers. Ning, S., and Knox, S. J. in Int. J. Radiat. Oncol. Biol. Phys. (2004) 60:197-203. Briefly, ABDNAZ-treated and untreated control cells were collected and fixed with cold 100% ethanol. Cells were pelleted, treated with 100 μg/mL of RNase A in PBS-EDTA solution for 30 min and stained with 50 μg/mL of PI for 10 min at room temperature. The DNA content was analyzed with a FACScan flowcytometer (Becton Dickison, San Jose, Calif.). The percentage of cells in the sub-G1 phase was calculated as described previously by Ning and coworkers.\nTo examine whether ABDNAZ-induced apoptotic cell death was due to the generation of reactive oxygen species (ROS), Daudi cells were treated with a glutathione (GSH) precursor, N-acetylcysteine (NAC), and a GSH synthesis inhibitor, buthionine-(S,R)-sulfoxime (BSO), and the level of apoptosis was measured.",
  "data": [
    {"smiles": "O=C(CBr)N1CC([N+](=O)[O-])([N+](=O)[O-])C1", "note": "[ABDNAZ, 1-bromoacetyl-3,3-dinitroazetidine]", "values": [
      {"measurement": "Daudi cell apoptosis", "setting": "2 mM ABDNAZ, measured at 24 hours (FIG. 1)", "value": 30, "unit": "%"},
      {"measurement": "Daudi cell apoptosis", "setting": "4 mM ABDNAZ, measured at 72 hours after exposure (FIG. 1)", "value": 45, "unit": "%"},
      {"measurement": "ABDNAZ-induced apoptosis", "setting": "Daudi cells pre-treated with N-acetylcysteine (GSH precursor) (FIG. 2)", "value": 5, "unit": "%"},
      {"measurement": "ABDNAZ-induced apoptosis", "setting": "Daudi cells pre-treated with buthionine-(S,R)-sulfoxime (GSH synthesis inhibitor) (FIG. 2)", "value": 25, "unit": "%"},
      {"measurement": "ABDNAZ-induced apoptosis", "setting": "Daudi cells, ABDNAZ without pre-treatment (FIG. 2)", "value": 11, "unit": "%"}
    ]}
  ]
}
